Test results taken from patent US20210345602A1, “MAMMAL CELL PRESERVING SOLUTION CONTAINING ACARBOSE OR STACHYOSE” (OTSUKA PHARMACEUTICAL FACTORY, INC., priority 2018, published 2021).

Legend:
Assay type in all cases: cell-based
[1] = tested on: bone marrow-derived human mesenchymal stem cells (hMSCs); experiment: Viability of hMSCs after preservation in test isotonic liquid, trypan blue staining method; settings: for Cell viability (%) (Mean ± Standard deviation [SD]): n=3; for effect of suppressing the decrease in cell viability (screening of 93 saccharides): saccharide 87.5 mM in Lactec injection, compared with 88 mM trehalose or lactated Ringer's solution
Description: [1] 4×10^5 hMSCs were added to a 75-cm^2 flask and cultured at 37° C. in a 5% CO2 incubator in the presence of a medium. The state of the cells was observed under a microscope, and the cells were cultured until about 80% confluent. The medium was removed, and the hMSCs were rinsed with 8-mL PBS(−). The PBS(−) was removed, and 3.75-mL trypsin-EDTA (manufactured by Lonza) was added thereto, and the mixture was left standing at room temperature for 5 minutes. The hMSCs were observed under a microscope and slowly shaken until about 90% of them were exfoliated. 3.75 mL of medium was added thereto, to stop the trypsin reaction, and the hMSCs were collected by pipetting and transferred to a 50-mL centrifuge tube. […] Centrifugation was performed at 600×g and 22° C. for 5 minutes. The supernatant (medium) was removed, 1.5 mL of PBS(−) was added thereto, and the precipitate (hMSCs) was suspended. The number of cells was measured and adjusted with PBS(−) to 5×10^3 cells/mL, to prepare PBS containing hMSCs. [Method for Preserving hMSCs in Each Test Isotonic Liquid]
[1] 0.5 mL of the PBS containing hMSCs prepared was dispensed into each tube and centrifuged (at 600×g for 5 minutes). […] [Analysis of Viability of hMSCs by Trypan Blue Staining Method]
[1] […] Thereafter, 20 μL of a trypan blue staining solution (manufactured by Gibco) was mixed thereto. As a comparative control, 20 μL (equivalent to 1×10^4 cells) was collected from each PBS containing hMSCs before suspension in each test isotonic liquid (before preservation at 4° C.) and transferred to a tube. Thereafter, 20 μL of a trypan blue staining solution was mixed thereto. The total number of cells and the number of trypan blue-positive cells (dead cells) were measured under a microscope using OneCell Counter (manufactured by Bio Medical Science), to calculate the percentage of trypan blue-negative cells to the total number of cells, that is, the cell viability.

CD8-positive T cells = experiment: Viability of expansion-cultured CD8-positive T cells after preservation, trypan blue staining method; settings: CD8-positive T cells preserved at 5° C. for 24 hours; n=3
Description: Cryopreserved CD8-positive T cells were thawed, then washed with a lymphocyte culture medium (LGM3, manufactured by Lonza), and incubated in the medium for about 1 hour (at 37° C. in 5% CO2). […] The medium containing the CD8-positive T cells was separated and centrifuged (at 300×g and room temperature for 10 minutes). […] The supernatant was removed, and the cells were suspended in TLY CULTURE kit 25 (manufactured by GC LYMPHOTEC Inc.) and the CD8-positive T cells were expansion-cultured under conditions of 37° C. and 5% CO2 for 7 days.
CD8-positive T cells (with a cell concentration of about 1.1×10^6 cells/5 mL) expansion-cultured for 7 days were washed with Lactec injection containing 88 mM trehalose, dispensed in Stemfull tube (manufactured by Sumitomo Bakelite Co., Ltd.), and then centrifuged (at 300×g and room temperature for 10 minutes). […] The supernatant was removed, and the precipitate (CD8-positive T cells) was suspended in 3 kinds of test isotonic liquids (Lactec injection containing 88 mM acarbose, Lactec injection containing 88 mM trehalose, and Lactec injection) and then preserved at 5° C. for 24 hours. […] After preservation for 24 hours, the cell viability was measured according to the method described in procedure [2] above.

rat hepatocytes = experiment: Viability of rat hepatocytes after preservation in test isotonic liquid, trypan blue staining method; settings: rat hepatocytes preserved at 4° C. for 24 hours; n=6; Pre 70.8±3.32
Description: A stock tube of rat hepatocytes was taken out of a liquid nitrogen tank and thawed in a constant temperature bath at 37° C. […] Immediately after thawing, it was allowed to stand on ice and transferred to a 50-mL centrifuge tube. […] 25 mL of hepatocyte wash medium (which will be hereinafter referred to as “wash medium”) (manufactured by GIBCO) cooled with ice was added dropwise. […] Centrifugation was performed at 50×g and 4° C. for 3 minutes. […] The supernatant (wash medium) was removed, 6 mL of wash medium was added thereto, and the precipitate (rat hepatocytes) was suspended by pipetting 2 to 3 times. […] The number of cells was measured and adjusted with a wash medium to 5×10^3 cells/mL, to prepare a wash medium containing rat hepatocytes.
0.5 mL of the wash medium containing rat hepatocytes prepared was dispensed into each tube and centrifuged (at 50×g and 4° C. for 3 minutes). […] The supernatant (wash medium) was removed, and the precipitate (rat hepatocytes) was suspended in 0.5 mL of each test isotonic liquid and preserved at 4° C. for 24 hours.

[2] = tested on: bone marrow-derived human mesenchymal stem cells (hMSCs); experiment: Cell aggregation level of hMSCs after preservation, phase contrast microscope; settings: hMSCs preserved at 25° C. for 48 hours; 88 mM acarbose in Lactec injection
Description: The hMSCs were preserved in each test isotonic liquid at 25° C. for 48 hours according to the method described in Example 1. Each test isotonic liquid containing the hMSCs after preservation was partially collected, and the presence or absence of cell aggregates in which three or more cells gather together was observed under a phase contrast microscope.

[3] = hMSCs preserved at 5° C. for 4 days, Pre 93.7±2.0%
[4] = hMSCs preserved at 4° C. for 3 days
[5] = hMSCs preserved at 4° C. for 2 days, Pre 94.7±2.1
[6] = hMSCs preserved at 4° C. for 3 days, α-glucosidase inhibitors 175 mM, Pre 98.5±0.6

OC[C@H]1O[C@H](O[C@H]2O[C@H](CO)[C@@H](O)[C@H](O)[C@H]2O)[C@H](O)[C@@H](O)[C@@H]1O [trehalose]
Cell viability (%) (Mean ± Standard deviation [SD]) [1, 3]: cell viability increased
Cell viability (%) (Mean ± Standard deviation [SD]) 24 hours (CD8-positive T cells): cell viability increased

CC1(C)O[C@H](CO)[C@@H](CO)O1 [(−)-2,3-O-iso propylidene-D-threitol]
effect of suppressing the decrease in cell viability (screening of 93 saccharides) [1, 4]: cell viability decreased

N[C@@H]1C(O)O[C@H](CO)[C@@H](O)[C@@H]1O (stereo partly drawn) [D-mannosamine]
effect of suppressing the decrease in cell viability (screening of 93 saccharides) [1, 4]: cell viability decreased

OC[C@H]1O[C@H](OC[C@H]2O[C@H](OC[C@H]3O[C@H](O[C@]4(CO)O[C@H](CO)[C@@H](O)[C@@H]4O)[C@H](O)[C@@H](O)[C@@H]3O)[C@H](O)[C@@H](O)[C@H]2O)[C@H](O)[C@@H](O)[C@H]1O [stachyose]
Cell viability (%) (Mean ± Standard deviation [SD]) [1, 5]: cell viability increased
Cell viability (%) (Mean ± Standard deviation [SD]) [1, 3]: cell viability significantly increased at any concentration
effect of suppressing the decrease in cell viability (screening of 93 saccharides) [1, 4]: higher effect of suppressing the decrease in cell viability than trehalose

O=C[C@H](O)[C@@H](O)[C@@H](O)[C@H](O)C(=O)O [D-galacturonic acid]
effect of suppressing the decrease in cell viability (screening of 93 saccharides) [1, 4]: cell viability decreased

OC[C@H]1O[C@H](O[C@H]2[C@H](O)[C@@H](O)[C@@H](O[C@H]3[C@H](O)[C@@H](O)[C@@H](O[C@H]4[C@H](O)[C@@H](O)C(O)O[C@@H]4CO)O[C@@H]3CO)O[C@@H]2CO)[C@H](O)[C@@H](O)[C@@H]1O (stereo partly shown) [maltotetraose]
Cell viability (%) (Mean ± Standard deviation [SD]) [1, 5]: such an increase in cell viability was not observed

OCCN1C[C@H](O)[C@@H](O)[C@H](O)[C@H]1CO [miglitol]
Cell viability (%) (Mean ± Standard deviation [SD]) [1, 6]: cell viability was almost unchanged

O=C(O)[C@H](O)[C@@H](O)[C@H](O[C@@H]1O[C@H](CO)[C@H](O)[C@H](O)[C@H]1O)[C@H](O)CO [D-lactobionic acid]
effect of suppressing the decrease in cell viability (screening of 93 saccharides) [1, 4]: cell viability decreased

OCC(CO)N[C@H]1C[C@](O)(CO)[C@@H](O)[C@H](O)[C@H]1O [voglibose]
Cell viability (%) (Mean ± Standard deviation [SD]) [1, 6]: cell viability was almost unchanged

C[C@H]1O[C@H](O[C@H]2[C@H](O)[C@@H](O)[C@@H](O[C@H]3[C@H](O)[C@@H](O)C(O)O[C@@H]3CO)O[C@@H]2CO)[C@H](O)[C@@H](O)[C@@H]1N[C@H]1C=C(CO)[C@@H](O)[C@H](O)[C@H]1O (stereo partly shown) [acarbose]
Cell viability (%) (Mean ± Standard deviation [SD]) [1, 5]: cell viability increased
Cell viability (%) (Mean ± Standard deviation [SD]) [1, 6]: cell viability increased
effect of suppressing the decrease in cell viability (screening of 93 saccharides) [1, 4]: higher effect of suppressing the decrease in cell viability than trehalose
Cell viability (%) (Mean ± Standard deviation [SD]) (rat hepatocytes): cell viability significantly increased
presence or absence of cell aggregates (three or more cells) [2]: almost no cell aggregates were observed
Cell viability (%) (Mean ± Standard deviation [SD]) 24 hours (CD8-positive T cells): cell viability significantly increased

OC[C@H]1O[C@@](CO)(OC[C@@]2(OC[C@@]3(O[C@H]4O[C@H](CO)[C@@H](O)[C@H](O)[C@H]4O)O[C@H](CO)[C@@H](O)[C@@H]3O)O[C@H](CO)[C@@H](O)[C@@H]2O)[C@@H](O)[C@@H]1O [nystose]
Cell viability (%) (Mean ± Standard deviation [SD]) [1, 5]: such an increase in cell viability was not observed
